Test results: article PMC7179653 (Antimicrobial Agents and Chemotherapy, 2020)
Read-outs that look alike come from different tables or passages of the source.

Legend:
[1] = SAD study: single-dose nacubactam pharmacokinetics (plasma/urine, LC-MS/MS, noncompartmental); format: in vivo; details: human, iv; for AUC(0-inf) / AUC(0-t) / Cmax / Tmax / k el / clearance / Vd / half-life: plasma
Description: Study treatments were administered as 30-min (SAD study) or 90-min (MAD study) i.v. infusions, the latter to investigate the pharmacokinetics using a longer infusion time, which is commonly used to increase the time above the MIC of β-lactams ([15]). The choice of a 90-min infusion time for the MAD study was dictated by the stability and toxicology data available at the time the study was being designed. […] Safety assessments included monitoring of AEs, laboratory safety tests (hematology, serum chemistry, and urinalysis), 12-lead ECG (discrete recordings and 24-h Holter recording), and vital signs (blood pressure, pulse rate, and body temperature). In the SAD study, safety assessments were performed predose at screening, at day 1, postdose periodically on days 1, 2, and 7 (follow-up), and at early withdrawal, if relevant. […] In the MAD study, safety assessments were done predose at screening, at day 2, postdose periodically on days 1, 2, 4, 7, and 8, on days 13 to 15 (follow-up), and at early withdrawal, if relevant. […] On all other days, a single predose sample was collected for pharmacokinetic evaluation prior to the morning infusion. Blood was collected into lithium-heparin tubes and stored at a nominal –80°C temperature until analysis.

[2] = Drug-drug interaction analysis nacubactam/meropenem (ANCOVA, geometric mean ratios); format: in vivo, human; details: nacubactam 2,000 mg single dose, 90% CI
Description: All participants in the active group received a single 2,000-mg dose of both drugs on day 3 and q8h on days 4 to 8, with a final single dose of both drugs on the morning of day 9. A washout period of approximately 24 h between treatments was provided.

[3] = Intensive ECG monitoring and exposure-response analysis of QTcF; format: in vivo, human
Description: Safety assessments included monitoring of AEs, laboratory safety tests (hematology, serum chemistry, and urinalysis), 12-lead ECG (discrete recordings and 24-h Holter recording), and vital signs (blood pressure, pulse rate, and body temperature). In the SAD study, safety assessments were performed predose at screening, at day 1, postdose periodically on days 1, 2, and 7 (follow-up), and at early withdrawal, if relevant. […] In the MAD study, safety assessments were done predose at screening, at day 2, postdose periodically on days 1, 2, 4, 7, and 8, on days 13 to 15 (follow-up), and at early withdrawal, if relevant. […] On all other days, a single predose sample was collected for pharmacokinetic evaluation prior to the morning infusion. Blood was collected into lithium-heparin tubes and stored at a nominal –80°C temperature until analysis.

[4] = set-up: method as in unpublished data; details: ref unpublished data; cited from earlier work
[5] = 1000 mg, single i.v. dose 1,000 mg, n = 6, mean (SD)
[6] = 2000 mg, single i.v. dose 2,000 mg, n = 6, mean (SD)
[7] = single i.v. dose 50 mg, n = 6, mean (SD)
[8] = single i.v. dose 150 mg, n = 6, mean (SD)
[9] = single i.v. dose 500 mg, n = 6, mean (SD)

**Q.** Which results are given for `NCCONC(=O)[C@@H]1CC[C@@H]2CN1C(=O)N2OS(=O)(=O)O` [Nacubactam]?
**A.** CL renal ([1]; plasma and urine, single i.v. doses, 6.86 ± 0.64 to 9.66 ± 1.66, read-out: mean CLR (renal clearance), range over the five dose levels): 114 to 161 mL/min; AUC(0-inf) [1, 5]: 143000 ng·h/mL; AUC(0-t) [1, 5]: 142000 ng·h/mL; Cmax [1, 5]: 72000 ng/mL; Tmax [1, 5]: 0.5 h; k el [1, 5]: 9.72e-05 s⁻¹; clearance ([1]; 1000 mg, single i.v. dose 1,000 mg, n = 6, mean (SD), read-out: CL (converted)): 117 mL/min; Vd ([1]; 1000 mg, single i.v. dose 1,000 mg, n = 6, mean (SD), read-out: Vss): 17 L; half-life ([1]; 1000 mg, single i.v. dose 1,000 mg, n = 6, mean (SD), read-out: t1/2 (converted)): 2.05 h; AUC(0-inf) [1, 6]: 229000 ng·h/mL; AUC(0-t) [1, 6]: 229000 ng·h/mL; Cmax [1, 6]: 112000 ng/mL; Tmax [1, 6]: 0.5 h; k el [1, 6]: 8.61e-05 s⁻¹; clearance ([1]; 2000 mg, single i.v. dose 2,000 mg, n = 6, mean (SD), read-out: CL (converted)): 146 mL/min; Vd ([1]; 2000 mg, single i.v. dose 2,000 mg, n = 6, mean (SD), read-out: Vss): 20.6 L; half-life ([1]; 2000 mg, single i.v. dose 2,000 mg, n = 6, mean (SD), read-out: t1/2 (converted)): 2.36 h; AUC(0-inf) [1, 7]: 5210 ng·h/mL; AUC(0-t) [1, 7]: 5080 ng·h/mL; Cmax [1, 7]: 2690 ng/mL; Tmax [1, 7]: 0.54 h; k el [1, 7]: 0.000106 s⁻¹; clearance ([1]; single i.v. dose 50 mg, n = 6, mean (SD), read-out: CL (converted)): 164 mL/min; Vd ([1]; single i.v. dose 50 mg, n = 6, mean (SD), read-out: Vss): 22.4 L; half-life ([1]; single i.v. dose 50 mg, n = 6, mean (SD), read-out: t1/2 (converted)): 1.83 h; AUC(0-inf) [1, 8]: 16300 ng·h/mL; AUC(0-t) [1, 8]: 16100 ng·h/mL; Cmax [1, 8]: 9020 ng/mL; Tmax [1, 8]: 0.5 h; k el [1, 8]: 0.000111 s⁻¹; clearance ([1]; single i.v. dose 150 mg, n = 6, mean (SD), read-out: CL (converted)): 157 mL/min; Vd ([1]; single i.v. dose 150 mg, n = 6, mean (SD), read-out: Vss): 20.2 L; half-life ([1]; single i.v. dose 150 mg, n = 6, mean (SD), read-out: t1/2 (converted)): 1.76 h; AUC(0-inf) [1, 9]: 53900 ng·h/mL; AUC(0-t) [1, 9]: 53600 ng·h/mL; Cmax [1, 9]: 31300 ng/mL; Tmax [1, 9]: 0.5 h; k el [1, 9]: 0.000108 s⁻¹; clearance ([1]; single i.v. dose 500 mg, n = 6, mean (SD), read-out: CL (converted)): 156 mL/min; Vd ([1]; single i.v. dose 500 mg, n = 6, mean (SD), read-out: Vss): 19.6 L; half-life ([1]; single i.v. dose 500 mg, n = 6, mean (SD), read-out: t1/2 (converted)): 1.77 h; clearance ([1]; single i.v. doses 50 to 2,000 mg, read-out: mean CL, range across doses): 117 to 164 mL/min; Vd ([1]; single i.v. doses 50 to 2,000 mg, read-out: mean Vss, range across doses): 17 to 22.4 L; half-life ([1]; single i.v. doses, 1.76 ± 0.17 to 2.36 ± 0.46, read-out: mean apparent terminal elimination half-life (t1/2), range across doses): 1.76 to 2.36 h; CLR GMR, monotherapy vs combination with meropenem ([2]; 0.85 to 1.07): 0.95; Vss GMR, monotherapy vs combination with meropenem ([2]; 0.87 to 1.11): 0.98; treatment estimate, linear model of change in QTcF vs plasma concentration ([3]; 90% CI, 3.8879 to 1.9931, P = 0.59): 0.9474; slope estimate, linear model of change in QTcF vs plasma concentration ([3]; P = 0.73): 0.00422; upper limit of the two-sided 90% CI of predicted change from baseline in QTcF ([3]; at the Cmax of 325 μg/ml, each of the three models): < 10 ms; predicted mean change from baseline in QTcF ([3]; at the Cmax of 325 μg/ml, each of the three models (linear, quadratic, log-linear)): < 3 ms; effect on QTc interval duration, other ECG intervals, or ECG morphology ([3]; nacubactam alone, intensive ECG monitoring): did not reveal any significant effects; fraction unbound [4]: 0.98; protein binding [4]: 2%
